The values that follow come from patent US20150031668A1, “CHROMAN DERIVATIVES AS TRPM8 INHIBITORS” (AMGEN INC., priority 2013, published 2015).

Structures can show the parent of a compound that is named as a salt.

The target of this test is T1, human TRPM8 (Homo sapiens, UniProt Q7Z2W7).
T1 construct: expressed in transfected cells; host or cells: Chinese hamster ovary (CHO) cells, T-REx tetracycline-inducible expression system (Invitrogen); co-transfected with pcDNA3.1 aequorin
T1 sequence (Q7Z2W7 whole entry): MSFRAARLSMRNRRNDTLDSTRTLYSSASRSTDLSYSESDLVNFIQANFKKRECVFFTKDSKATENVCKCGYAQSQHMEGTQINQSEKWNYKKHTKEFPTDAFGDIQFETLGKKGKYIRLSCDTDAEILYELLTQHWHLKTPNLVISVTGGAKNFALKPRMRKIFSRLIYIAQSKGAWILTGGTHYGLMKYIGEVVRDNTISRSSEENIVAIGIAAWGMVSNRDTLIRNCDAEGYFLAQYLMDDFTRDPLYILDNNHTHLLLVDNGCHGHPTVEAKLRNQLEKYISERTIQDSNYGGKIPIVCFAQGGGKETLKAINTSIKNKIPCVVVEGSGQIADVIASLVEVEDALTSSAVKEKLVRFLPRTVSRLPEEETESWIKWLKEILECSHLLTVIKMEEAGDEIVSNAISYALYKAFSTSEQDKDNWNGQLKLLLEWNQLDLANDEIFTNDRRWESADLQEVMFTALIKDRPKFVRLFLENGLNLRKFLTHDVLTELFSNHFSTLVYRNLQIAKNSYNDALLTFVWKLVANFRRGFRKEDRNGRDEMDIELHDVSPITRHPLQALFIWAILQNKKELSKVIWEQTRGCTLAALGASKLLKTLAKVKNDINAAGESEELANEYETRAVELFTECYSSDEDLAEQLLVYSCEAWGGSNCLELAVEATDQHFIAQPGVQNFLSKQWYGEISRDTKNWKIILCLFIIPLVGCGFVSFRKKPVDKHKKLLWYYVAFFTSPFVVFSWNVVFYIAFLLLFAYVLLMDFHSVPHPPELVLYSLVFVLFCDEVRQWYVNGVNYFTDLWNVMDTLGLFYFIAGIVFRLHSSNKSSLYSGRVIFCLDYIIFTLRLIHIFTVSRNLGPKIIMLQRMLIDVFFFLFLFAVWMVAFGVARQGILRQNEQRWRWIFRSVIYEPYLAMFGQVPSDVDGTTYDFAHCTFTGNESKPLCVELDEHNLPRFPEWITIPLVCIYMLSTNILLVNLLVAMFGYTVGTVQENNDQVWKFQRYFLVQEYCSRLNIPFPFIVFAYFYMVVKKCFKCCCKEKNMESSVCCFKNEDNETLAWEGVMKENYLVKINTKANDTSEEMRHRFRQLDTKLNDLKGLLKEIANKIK
Description: Luminescence readout assay for measuring intracellular calcium (aequorin, CHO cells expressing human TRPM8; icilin, L-menthol or cold activation). The class given is cell-based. To be noted: CHO cells expressing human TRPM8, icilin activation (1 μM), aequorin luminescence; read-out: hTRPM8 IC50. The method in brief:
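Activation was by 1 μM icilin, 100 μM L-menthol (test compound 2.5 min ahead) or cold buffer below 10° C (compound 1 min ahead). Calcium rise measured as aequorin luminescence in CHO cells with tetracycline-inducible human TRPM8.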
On the technique in general: Calcium flux is commonly read through the fluorescence of an indicator in the cells.
Usually IC50 stands for the concentration that inhibits the measured activity by half. Consider `O=C(Nc1cccc(C(=O)O)c1)N[C@]1(c2ccc(OC(F)(F)F)c(F)c2)CCOc2cccnc21` [Example 107, (S)-3-(3-(4-(3-fluoro-4-(trifluoromethoxy)phenyl)-3,4-dihydro-2H-pyrano[3,2-b]pyridin-4-yl)ureido)benzoic acid], for which the IC50 was 150 nM.
The result for `O=C(N[C@]1(c2ccc(OC(F)(F)F)c(F)c2)CCOc2nccnc21)c1ccc(=O)[nH]c1` [Example 164, (S)-N-(8-(3-fluoro-4-(trifluoromethoxy)phenyl)-7,8-dihydro-6H-pyrano[2,3-b]pyrazin-8-yl)-6-oxo-1,6-dihydropyridine-3-carboxamide] reads 2230 nM.
The result for `O=C(NC1(c2ccc(C(F)(F)F)cc2)CCCc2cccnc21)c1ccc(=O)[nH]c1` (stereo not shown) [Example 31, 6-oxo-N-(8-(4-(trifluoromethyl)phenyl)-5,6,7,8-tetrahydroquinolin-8-yl)-1,6-dihydropyridine-3-carboxamide] reads 784 nM.
The result for `O=C(NC1(c2ccccc2)CCOc2cccnc21)c1ccc2[nH]c(=O)oc2c1` (stereo not shown) [Example 26, 2-oxo-N-(4-phenyl-3,4-dihydro-2H-pyrano[3,2-b]pyridin-4-yl)-2,3-dihydrobenzo[d]oxazole-6-carboxamide] reads 14 nM; that for `Cc1cc(C(=O)N[C@]2(c3ccc(OC(F)(F)F)c(F)c3)CCOc3cccnc32)ccc1Br` [Example 167, (S)-4-bromo-N-(4-(3-fluoro-4-(trifluoromethoxy)phenyl)-3,4-dihydro-2H-pyrano [3,2-b]pyridin-4-yl)-3-methylbenzamide], 19 nM; that for `O=C(N[C@]1(c2ccc(OC(F)(F)F)cc2)CCOc2cccnc21)c1cc[nH]n1` [Example 211, (S)-N-(4-(4-(trifluoromethoxy)phenyl)-3,4-dihydro-2H-pyrano[3,2-b]pyridin-4-yl)-1H-pyrazole-3-carboxamide formate], 336 nM.
For the compound `CC(C)c1cc(C(=O)N[C@]2(c3ccc(OC(F)(F)F)c(F)c3)CCOc3cccnc32)ccc1C(=O)O` [Example 292, (S)-4-((4-(3-fluoro-4-(trifluoromethoxy)phenyl)-3,4-dihydro-2H-pyrano[3,2-b]pyridin-4-yl)carbamoyl)-2-isopropylbenzoic acid], the concentration for half-maximal inhibition (IC50) was 14 nM.
Take `O=C(N[C@]1(c2ccc(OC(F)(F)F)cc2)CCOc2cccnc21)C1=Cc2ccccc2OC1` [Example 259, (S)-N-(4-(4-(trifluoromethoxy)phenyl)-3,4-dihydro-2H-pyrano[3,2-b]pyridin-4-yl)-2H-chromene-3-carboxamide formate]: the IC50 is 88 nM.
Turning to `N#Cc1ccc(-c2ccc([C@@]3(NC(=O)c4ccccc4)CCOc4cccnc43)cc2)cc1` [Example 154, (S)—N-(4-(4′-cyano-[1,1′-biphenyl]-4-yl)-3,4-dihydro-2H-pyrano[3,2-b]pyridin-4-yl)benzamide], the IC50 was determined as 91 nM.
For `Cn1c(C(=O)O)cc2ccc(C(=O)N[C@]3(c4ccc(OC(F)(F)F)c(F)c4)CCOc4cccnc43)cc21` [Example 322, (S)-6-((4-(3-fluoro-4-(trifluoro-methoxy)phenyl)-3,4-dihydro-2H-pyrano[3,2-b]pyridin-4-yl)carbamoyl)-1-methyl-1H-indole-2-carboxylic acid], the IC50 was 9 nM.
`Cn1c(C(=O)N[C@]2(c3ccc(OC(F)(F)F)cc3)CCOc3cccnc32)cc2ccccc21` [Example 256, (S)-1-methyl-N-(4-(4-(trifluoromethoxy)phenyl)-3,4-dihydro-2H-pyrano[3,2-b]pyridin-4-yl)-1H-indole-2-carboxamide formate]: the 50% inhibitory concentration (IC50) came out at 48 nM.
Take `Cc1cc(C(=O)N[C@]2(c3ccc(OC(F)(F)F)c(F)c3)CCOc3cccnc32)ncc1Br` [Example 166, (S)-5-bromo-N-(4-(3-fluoro-4-(trifluoromethoxy)phenyl)-3,4-dihydro-2H-pyrano[3,2-b]pyridin-4-yl)-4-methylpicolin amide]: the concentration for half-maximal inhibition (IC50) was found to be 10 nM.
With `CNc1cc(C(=O)N[C@]2(c3ccc(OC(F)(F)F)c(F)c3)CCOc3cccnc32)cc(F)c1C(=O)O` [Example 304, (S)-2-fluoro-4-((4-(3-fluoro-4-(trifluoromethoxy)phenyl)-3,4-dihydro-2H-pyrano[3,2-b]pyridin-4-yl)carbamoyl)-6-(methylamino)benzoic acid], the IC50 was determined as 28 nM.
The result for `O=C(N[C@]1(c2ccc(OC(F)(F)F)cc2)CCOc2cccnc21)c1cncs1` [Example 233, (S)-N-(4-(4-(trifluoromethoxy)phenyl)-3,4-dihydro-2H-pyrano[3,2-b]pyridin-4-yl)thiazole-5-carboxamide formate] reads 222 nM.
As to `CNC(=O)c1cccc(C(=O)N[C@]2(c3ccc(OC(F)(F)F)c(F)c3)CCOc3cccnc32)c1` [Example 309, (S)—N1-(4-(3-fluoro-4-(trifluoromethoxy)phenyl)-3,4-dihydro-2H-pyrano[3,2-b]pyridin-4-yl)-N3-methylisophthalamide], the IC50 is 55 nM.
Turning to `Cn1cc(C(=O)N[C@]2(c3ccc(OC(F)(F)F)c(F)c3)CCOc3cccnc32)cc1C(=O)O` [Example 299, (S)-4-((4-(3-fluoro-4-(trifluoromethoxy)phenyl)-3,4-dihydro-2H-pyrano[3,2-b]pyridin-4-yl)carbamoyl)-1-methyl-1H-pyrrole-2-carboxylic acid], the IC50 is 115 nM.
The result for `O=C(N[C@]1(c2ccc(OC(F)(F)F)cc2)CCOc2cccnc21)c1ccc2cnccc2c1` [Example 250, (S)-N-(4-(4-(trifluoromethoxy)phenyl)-3,4-dihydro-2H-pyrano[3,2-b]pyridin-4-yl)isoquinoline-6-carboxamide formate] reads 15 nM; that for `COc1ccc(C(=O)N[C@]2(c3ccc(C(F)(F)F)cc3)CCOc3cccnc32)cn1` [Example 32, (S)-6-methoxy-N-(4-(4-(trifluoromethyl)phenyl)-3,4-dihydro-2H-pyrano[3,2-b]pyridin-4-yl)nicotinamide], 51 nM.
The figure for `O=C(N[C@]1(c2ccc(OC(F)(F)F)c(F)c2)CCOc2cccnc21)c1ccc(O)cn1` [Example 51, (S)-N-(4-(3-fluoro-4-(trifluoromethoxy)phenyl)-3,4-dihydro-2H-pyrano[3,2-b]pyridin-4-yl)-5-hydroxypicolinamide] is 5 nM; for `O=C1CCc2cc(C(=O)N[C@]3(c4ccc(C(F)(F)F)cc4)CCOc4cccnc43)ccc2N1` [Example 33, (S)-2-oxo-N-(4-(4-(trifluoromethyl)phenyl)-3,4-dihydro-2H-pyrano[3,2-b]pyridin-4-yl)-1,2,3,4-tetrahydroquinoline-6-carboxamide] it is 5 nM; for `O=C(N[C@]1(c2ccc(C(F)(F)F)cc2)CCOc2cccnc21)c1ccc(=O)[nH]c1` [Example 60, (S)-6-oxo-N-(4-(4-(trifluoromethyl)phenyl)-3,4-dihydro-2H-pyrano[3,2-b]pyridin-4-yl)-1,6-dihydropyridine-3-carboxamide] it is 125 nM.
The result for `O=C(O)C1CCN(C(=O)N[C@]2(c3ccc(OC(F)(F)F)c(F)c3)CCOc3cccnc32)CC1` [Example 110] reads 585 nM; that for `O=C(N[C@]1(c2ccc(C(F)(F)F)cc2)CCOc2ccccc21)c1ccccc1` (single isomer, unassigned) [Example 28], 1660 nM.
Turning to `CC(C)(C)[S@@+]([O-])N[C@]1(c2ccc(OC(F)(F)F)c(F)c2)CCOc2cccnc21` [Example 152, (R)—N—((S)-4-(3-fluoro-4-(trifluoromethoxy)phenyl)-3,4-dihydro-2H-pyrano[3,2-b]pyridin-4-yl)-2-methylpropane-2-sulfinamide], the IC50 is 2400 nM.
With `O=C(N[C@]1(c2ccc(OC(F)(F)F)cc2)CCOc2cccnc21)c1cnc2ccccc2c1` [Example 252, (S)-N-(4-(4-(trifluoromethoxy)phenyl)-3,4-dihydro-2H-pyrano[3,2-b]pyridin-4-yl)quinoline-3-carboxamide formate], the IC50 amounted to 24 nM.
`O=C(N[C@]1(c2ccc(OC(F)(F)F)c(F)c2)CCOc2cccnc21)c1ccc(C(=O)O)c(-c2ccccc2)c1` [Example 290, (S)-5-((4-(3-fluoro-4-(trifluoromethoxy)phenyl)-3,4-dihydro-2H-pyrano[3,2-b]pyridin-4-yl)carbamoyl)-[1,1′-biphenyl]-2-carboxylic acid]: the half-maximal inhibitory concentration (IC50) was found to be 86 nM.
As for `O=C(O)c1ccc(C(=O)N[C@]2(c3ccc(OC(F)(F)F)c(F)c3)CCOc3cccnc32)s1` [Example 336, (S)-5-((4-(3-fluoro-4-(trifluoromethoxy)phenyl)-3,4-dihydro-2H-pyrano[3,2-b]pyridin-4-yl)carbamoyl) thiophene-2-carboxylic acid 2,2,2-trifluoroacetate], the IC50 came to 86 nM.
The figure for `O=C(NC1(c2ccc(C(F)(F)F)cc2)CCCc2cccnc21)c1ccccc1` (stereo not shown) [Example 29, N-(8-(4-(trifluoromethyl)phenyl)-5,6,7,8-tetrahydroquinolin-8-yl)benzamide] is 143 nM; for `O=C(N[C@]1(c2ccc(-c3cccc(N4CCOCC4)c3)cc2)CCOc2cccnc21)c1ccc(F)cc1` [Example 142, (S)-4-fluoro-N-(4-(3′-morpholino-[1,1′-biphenyl]-4-yl)-3,4-dihydro-2H-pyrano[3,2-b]pyridin-4-yl)benzamide] it is 336 nM.
For `CS(=O)(=O)c1ccc(-c2ccc([C@@]3(NC(=O)c4ccc(F)cc4)CCOc4cccnc43)cc2)cc1` [Example 119, (S)-4-fluoro-N-(4-(4′-(methylsulfonyl)-[1,1′-biphenyl]-4-yl)-3,4-dihydro-2H-pyrano[3,2-b]pyridin-4-yl)benzamide], the IC50 was 879 nM.
With `O=C(N[C@]1(c2ccc(-c3ccc(N4CCOCC4)cc3)cc2)CCOc2cccnc21)c1ccc(F)cc1` [Example 133, (S)-4-fluoro-N-(4-(4′-morpholino-[1,1′-biphenyl]-4-yl)-3,4-dihydro-2H-pyrano[3,2-b]pyridin-4-yl)benzamide], the IC50 was determined as 156 nM.
